Laboratory results taken from patent US9877973B2, “Intraocular drug delivery device and associated methods” (University of Utah Research Foundation, priority 2008, dated 2018).
Like-named read-outs stand apart in the source and are kept apart here.

How the values were obtained:
[1] = rabbit, in vivo
[2] = rabbit, in vivo; remark: listed apart in the source
Experimental: The selected BDI-1 implants (from in-vitro release studies, FIG. 7) were sterilized, implanted in the capsular bag of rabbit's eyes. Two implants with different composition and dose were tested in-vivo in NZW rabbits to establish pharmacokinetics. Two rabbits were sacrificed at 2, 6, 10, 15 days and various tissue samples (aqueous humor, vitreous humor, IOL, iris/ciliary body and retina/choroid) were collected and samples were analyzed by a validated LC/MS/MS method.
A total of 8 animals (16 eyes) received the implant containing 120 μg of DXM.

[3] = AVASTIN-loaded intraocular device, ocular tissue concentration by ELISA; type: in vivo, New Zealand white rabbits; settings: 1 week post implantation of AVASTIN-loaded intraocular device
From the text: Three intraocular devices were implanted into eyes of New Zealand white rabbits under general anesthesia after lens extraction (phacoemulsification technique). Two of the devices were loaded with AVASTIN® and one was loaded with the contrast agent Galbumin as a control. Proper intraocular device position was verified by MRI as well as clinical examination.
The rabbits were sacrificed and the eyes are removed and assayed after 1 week post implantation. AVASTIN® was detected by ELISA in the retina and vitreous at concentrations of 24-48 mcg/mL, and was not present in the control rabbit eye.

Row | Compound | direction of dexamethasone flow from the endocapsular space [1] | direction of dexamethasone flow from the endocapsular space [2] | concentration in the retina and vitreous by ELISA [3] [ng/mL]
1 | C[C@@H]1C[C@H]2[C@@H]3CCC4=CC(=O)C=C[C@]4(C)[C@@]3(F)[C@@H](O)C[C@]2(C)[C@@]1(O)C(=O)CO [dexamethasone] | bidirectional from the endocapsular space into both the anterior and posterior chambers | bidirectional from the endocapsular space into both the anterior and posterior chambers | 
2 | bevacizumab [AVASTIN®] |  |  | 24000 to 48000
